Measurements taken from ChEMBL document CHEMBL1201862, “PubChem BioAssay data set” (2004).
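Growth conditions: 96-well plates. Treatment: test compound, 48 hours, 5 concentrations. Analysis: linear interpolation between bracketing concentrations; unreached endpoints set to highest concentration. Abbreviation: GI50, concentration required for 50% inhibition of growth.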 Activity calls are given as the source filed them. Rule as the data show it: active = GI50 up to about 1.1 µM and inactive = higher. Square brackets hold non-standard residues; d marks the D form. Peptide text beside a SMILES is read from it. * marks the point of attachment. Boc = CC(C)(C)OC(=O)*; Lac = C[CH](O)C(=O)O; OBn = c1ccc(CO*)cc1

Assays:
Experiment in all cases: NCI-60 cell line screen, 48 h
A498 = system: A498
EKVX = system: EKVX
HCT-15 = system: HCT-15
HL-60 = system: HL-60
M14 = system: M14
NCI-H23 = system: NCI-H23
OVCAR-8 = system: OVCAR-8
RXF 393 = system: RXF 393
SF-539 = system: SF-539
SK-MEL-2 = system: SK-MEL-2
SK-MEL-5 = system: SK-MEL-5
SN12C = system: SN12C
SNB-19 = system: SNB-19
SNB-75 = system: SNB-75
SR = system: SR
UACC-62 = system: UACC-62
UO-31 = system: UO-31
CAKI-1 = system: CAKI-1
NCI-H522 = system: NCI-H522
NCI/ADR-RES = system: NCI/ADR-RES

| SMILES | GI50 (A498) | GI50 (EKVX) | GI50 (HCT-15) [µM] | GI50 (HL-60) | GI50 (M14) | GI50 (NCI-H23) | GI50 (OVCAR-8) | GI50 (RXF 393) | GI50 (SF-539) | GI50 (SK-MEL-2) | GI50 (SK-MEL-5) | GI50 (SN12C) | GI50 (SNB-19) | GI50 (SNB-75) | GI50 (SR) | GI50 (UACC-62) | GI50 (UO-31) | GI50 (CAKI-1) | GI50 (NCI-H522) | GI50 (NCI/ADR-RES) |
| --- | --- | --- | --- | --- | --- | --- | --- | --- | --- | --- | --- | --- | --- | --- | --- | --- | --- | --- | --- | --- |
| CC1CC2=C(S(=O)(=O)c3ccccc3)CC(S(=O)(=O)c3ccccc3)(S(=O)(=O)c3ccccc3)CC21 (stereo not given) | > 100 µM (inactive) | > 100 µM (inactive) | > 100 | 16.6 µM (inactive) | > 100 µM (inactive) | > 100 µM (inactive) | > 100 µM (inactive) | > 100 µM (inactive) | > 100 µM (inactive) | > 100 µM (inactive) | > 100 µM (inactive) | > 100 µM (inactive) | > 100 µM (inactive) | 25.1 µM (inactive) | > 100 µM (inactive) | > 100 µM (inactive) | > 100 µM (inactive) | – | – | – |
| COP(=O)(OC)C(N)Cc1c[nH]c2ccccc12 (stereo not given) | > 100 µM (inactive) | – | > 100 | – | > 100 µM (inactive) | > 100 µM (inactive) | > 100 µM (inactive) | – | – | > 100 µM (inactive) | > 100 µM (inactive) | > 100 µM (inactive) | > 100 µM (inactive) | > 100 µM (inactive) | – | – | > 100 µM (inactive) | > 100 µM (inactive) | > 100 µM (inactive) | > 100 µM (inactive) |
| CC(OC(=O)C(Cc1ccccc1)NC(=O)C(Cc1ccccc1)NC(=O)OC(C)(C)C)C(=O)OCc1ccccc1 (stereo not drawn) (Boc-Phe-Phe-[Lac]-OBn; configuration not given here) | – | – | > 100 | > 100 µM (inactive) | 87.1 µM (inactive) | > 100 µM (inactive) | > 100 µM (inactive) | > 100 µM (inactive) | – | > 100 µM (inactive) | > 100 µM (inactive) | > 100 µM (inactive) | > 100 µM (inactive) | 93.1 µM (inactive) | > 100 µM (inactive) | > 10 µM (inactive) | > 100 µM (inactive) | > 100 µM (inactive) | > 100 µM (inactive) | > 100 µM (inactive) |
| O=C1Nc2ccc(Cl)cc2/C1=C\c1c(Cl)nc2sccn12 | 0.0632 µM (active) | – | 2.67 | 4.07 µM (inactive) | 34.2 µM (inactive) | 59 µM (inactive) | 50.8 µM (inactive) | 18.6 µM (inactive) | – | 0.314 µM (active) | – | > 100 µM (inactive) | > 100 µM (inactive) | > 100 µM (inactive) | 0.338 µM (active) | – | > 100 µM (inactive) | 18.7 µM (inactive) | 5.62 µM (inactive) | 3.1 µM (inactive) |
| CCC(=O)NC(Nc1cccc(F)c1)(C(F)(F)F)C(F)(F)F | – | 67.3 µM (inactive) | > 100 | 86.9 µM (inactive) | > 100 µM (inactive) | > 100 µM (inactive) | > 100 µM (inactive) | > 100 µM (inactive) | > 100 µM (inactive) | > 100 µM (inactive) | 78.7 µM (inactive) | 37.7 µM (inactive) | > 100 µM (inactive) | > 100 µM (inactive) | > 100 µM (inactive) | > 100 µM (inactive) | 70.1 µM (inactive) | 10.7 µM (inactive) | 29.6 µM (inactive) | > 100 µM (inactive) |
| CC1CC(C[N+](=O)[O-])CC2(C1)OCCO2 (stereo not given) | > 100 µM (inactive) | – | > 100 | > 100 µM (inactive) | > 100 µM (inactive) | – | > 100 µM (inactive) | > 100 µM (inactive) | > 100 µM (inactive) | > 100 µM (inactive) | > 100 µM (inactive) | > 100 µM (inactive) | > 100 µM (inactive) | > 100 µM (inactive) | > 100 µM (inactive) | > 100 µM (inactive) | > 100 µM (inactive) | > 100 µM (inactive) | > 100 µM (inactive) | – |
| O=C1NC(O)CCN1C1OC(CO)C(O)C1O (stereo not given) | > 211 µM (inactive) | > 250 µM (inactive) | > 250 | > 250 µM (inactive) | – | > 250 µM (inactive) | > 250 µM (inactive) | > 250 µM (inactive) | > 250 µM (inactive) | > 158 µM (inactive) | > 66.4 µM (inactive) | > 250 µM (inactive) | > 250 µM (inactive) | > 250 µM (inactive) | – | > 250 µM (inactive) | > 250 µM (inactive) | > 250 µM (inactive) | > 216 µM (inactive) | > 250 µM (inactive) |
| CC/C=C\C/C=C\C/C=C\CCCCCCCC(=O)OC [METHYL LINOLENATE] | > 100 µM (inactive) | > 100 µM (inactive) | > 100 | 22.8 µM (inactive) | – | > 100 µM (inactive) | > 100 µM (inactive) | – | > 100 µM (inactive) | > 100 µM (inactive) | > 100 µM (inactive) | > 100 µM (inactive) | > 100 µM (inactive) | 67.6 µM (inactive) | – | > 100 µM (inactive) | > 100 µM (inactive) | > 100 µM (inactive) | > 100 µM (inactive) | > 100 µM (inactive) |
| OC1CCOc2ccccc21 (stereo not given) | – | > 100 µM (inactive) | > 100 | > 100 µM (inactive) | > 100 µM (inactive) | > 100 µM (inactive) | > 100 µM (inactive) | > 100 µM (inactive) | > 100 µM (inactive) | > 100 µM (inactive) | > 100 µM (inactive) | > 100 µM (inactive) | > 100 µM (inactive) | – | > 100 µM (inactive) | > 100 µM (inactive) | > 100 µM (inactive) | > 100 µM (inactive) | > 100 µM (inactive) | – |
| COc1ccc(C(=O)NNC(=O)c2nsc3ccccc23)cc1 | – | 27.2 µM (inactive) | 41.7 | 23.3 µM (inactive) | 85.7 µM (inactive) | > 100 µM (inactive) | 60.1 µM (inactive) | > 100 µM (inactive) | > 100 µM (inactive) | > 100 µM (inactive) | > 100 µM (inactive) | > 100 µM (inactive) | > 100 µM (inactive) | – | – | > 100 µM (inactive) | > 100 µM (inactive) | – | – | – |
| Cc1ccc(C2CC(c3cccc([N+](=O)[O-])c3)=Nc3ccccc3S2)cc1 (stereo not given) | > 54.3 µM (inactive) | > 88.1 µM (inactive) | 25.5 | 20.1 µM (inactive) | 31.8 µM (inactive) | 22.9 µM (inactive) | 24.2 µM (inactive) | 29 µM (inactive) | 51.5 µM (inactive) | 38.3 µM (inactive) | 25.4 µM (inactive) | 32.9 µM (inactive) | > 58.3 µM (inactive) | 21 µM (inactive) | 25.8 µM (inactive) | 25.4 µM (inactive) | 20.8 µM (inactive) | 24.3 µM (inactive) | 20.5 µM (inactive) | – |
| Cc1n[nH]c(CC#N)n1 | – | > 100 µM (inactive) | > 100 | – | > 100 µM (inactive) | > 100 µM (inactive) | > 100 µM (inactive) | > 100 µM (inactive) | > 100 µM (inactive) | > 100 µM (inactive) | > 100 µM (inactive) | > 100 µM (inactive) | > 100 µM (inactive) | > 100 µM (inactive) | > 100 µM (inactive) | > 100 µM (inactive) | > 100 µM (inactive) | – | > 100 µM (inactive) | > 100 µM (inactive) |
| O=C(OCCOC(=O)c1ccc2c(c1)C1(SCCS1)c1ccccc1-2)c1ccc2c(c1)C1(SCCS1)c1ccccc1-2 | > 100 µM (inactive) | > 100 µM (inactive) | > 100 | > 100 µM (inactive) | > 100 µM (inactive) | > 100 µM (inactive) | > 100 µM (inactive) | – | > 100 µM (inactive) | > 100 µM (inactive) | > 100 µM (inactive) | > 100 µM (inactive) | > 100 µM (inactive) | > 100 µM (inactive) | > 100 µM (inactive) | > 100 µM (inactive) | > 100 µM (inactive) | > 100 µM (inactive) | > 100 µM (inactive) | – |
| CCOC(=O)C1CCn2c(nc3c2c(=O)n(C)c(=O)n3C)S1 (stereo not given) | – | > 100 µM (inactive) | > 100 | > 100 µM (inactive) | > 100 µM (inactive) | > 100 µM (inactive) | > 100 µM (inactive) | > 100 µM (inactive) | > 100 µM (inactive) | > 100 µM (inactive) | > 100 µM (inactive) | > 100 µM (inactive) | > 100 µM (inactive) | > 100 µM (inactive) | 77.1 µM (inactive) | > 100 µM (inactive) | – | > 100 µM (inactive) | > 100 µM (inactive) | – |
| Cc1cc(=O)oc2c1cc1ccc3cccc4ccc2c1c34 | > 100 µM (inactive) | > 100 µM (inactive) | > 100 | > 100 µM (inactive) | > 100 µM (inactive) | > 100 µM (inactive) | > 100 µM (inactive) | – | 58.6 µM (inactive) | > 100 µM (inactive) | > 100 µM (inactive) | > 100 µM (inactive) | 64.7 µM (inactive) | 41 µM (inactive) | – | > 100 µM (inactive) | > 100 µM (inactive) | > 100 µM (inactive) | 64.7 µM (inactive) | – |
| Cn1c(=O)c(C#N)c(O)c2cc3ccccc3nc21 | – | > 100 µM (inactive) | > 100 | > 100 µM (inactive) | > 100 µM (inactive) | > 100 µM (inactive) | > 100 µM (inactive) | > 100 µM (inactive) | > 100 µM (inactive) | > 100 µM (inactive) | > 100 µM (inactive) | > 100 µM (inactive) | > 100 µM (inactive) | 44.1 µM (inactive) | > 100 µM (inactive) | – | > 100 µM (inactive) | > 100 µM (inactive) | – | – |
